Series [1] deals with T1, SORT1 (Homo sapiens, UniProt Q99523).
T1 construct: Human SORT1 (78-755)-His (Acrobiosystems); His (C); purchased Acrobiosystems SON—H52H5
T1 sequence (Q99523 78-755): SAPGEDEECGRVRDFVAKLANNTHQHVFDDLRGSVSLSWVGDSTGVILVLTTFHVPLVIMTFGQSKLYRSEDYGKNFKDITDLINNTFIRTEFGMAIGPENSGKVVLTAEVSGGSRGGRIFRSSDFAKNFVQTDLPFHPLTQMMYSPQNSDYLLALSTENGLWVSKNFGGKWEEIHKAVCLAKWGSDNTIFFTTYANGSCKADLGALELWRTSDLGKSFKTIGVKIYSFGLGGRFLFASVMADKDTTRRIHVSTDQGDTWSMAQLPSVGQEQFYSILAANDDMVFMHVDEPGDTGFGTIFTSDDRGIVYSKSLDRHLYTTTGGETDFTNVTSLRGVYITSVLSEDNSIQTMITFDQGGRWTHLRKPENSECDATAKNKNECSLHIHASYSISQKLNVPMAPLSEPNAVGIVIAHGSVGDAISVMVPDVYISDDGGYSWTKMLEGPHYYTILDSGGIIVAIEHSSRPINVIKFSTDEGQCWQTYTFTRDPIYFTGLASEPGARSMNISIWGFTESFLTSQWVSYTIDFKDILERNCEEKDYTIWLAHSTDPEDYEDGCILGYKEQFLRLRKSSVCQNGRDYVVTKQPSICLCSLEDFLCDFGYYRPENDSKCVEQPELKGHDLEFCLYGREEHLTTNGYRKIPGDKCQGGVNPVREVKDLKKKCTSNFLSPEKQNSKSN
Nature of the series: Direct binding in fluorescence polarization (FP), FAM-labeled peptides.
Procedure: Peptides were dissolved into stock solutions in water, then brought up to final concentrations in 1×PBS, pH 7.4 and tested in DLS and CD (methods above) to ensure the peptides were soluble. Peptide concentrations were determined by quantifying the dye using the nanodrop and dye specific extinction coefficient at a specific wavelength. For FAM labeled dyes, the extinction coefficient 83000 cm^−1 M^−1 was used.
FAM labeled peptides were diluted to 1 μM in FP buffer (1×PBS, pH 7.4, 0.1% Tween-20) and serially diluted two-fold for a 12-point series to determine concentration at which the fluorescence intensity was 10,000 RFU and the polarization of the peptide was consistent. A 10× working solution would thus be 10× the concentration of FAM labeled peptide that satisfied the above criteria. […]
A 10× working solution of FAM-labeled peptides was prepared in the FP buffer (1×PBS, pH 7.4, 0.1% Tween-20). […] The 384-well plate was then centrifuged 1 min, 4000 rpm and fluorescence and polarization of dye measured on a Biotek Synergy Neo2 plate reader using the following settings (Excitation 485/20, Emission 528/20, Top read, Gain: 75, Light source: Xenon Flash, Lamp Energy: Low, Standard Dynamic range, Read speed: Normal, Delay: 0 msec, Measurements/Data Point: 10, Read Height: 9 mm). […]

Series [2] can be described thus: Dynamic light scattering (DLS) solubility/aggregation. The class given is physicochemical. As to conditions: working concentrations (250 nM, PBS, pH 7.4). The protocol: Samples were spun down on a bench top centrifuge, 15 minutes, 15,000 rpm, room temperature, to pellet any aggregated peptide/dust before taking a measurement. Visual inspection of the tubes was used to identify if any large pellets were formed, which is indicative of large aggregates. […] The plate was then transferred and read on the DLS instrument (Wyatt Technology DynaPro Plate Reader III) at 25° C.

Series [3] can be described thus: Maximum tolerated dose (MTD) study. The class given is in vivo, BALB/c Nude mice. As to conditions: 10 mg/kg single i.v. dose. The protocol: BALB/c Nude mice, female, 6-8 weeks, weighing approximately 18-22 g were purchased from the Shanghai SLAC Laboratory Animal Co., LTD. MTD studies were conducted at WuXi AppTec and the care and use of animals was conducted in accordance with the regulations of the Association for Assessment and Accreditation of Laboratory Animal Care (AAALAC). Two MTD studies were performed (a) a low dose study with doses ranging from 0.1, 0.5, 1 and 3 mg/kg and (b) a high dose study with doses ranging from 3, 5, 10 mg/kg. Dosing volume was determined based on body weight (10 ul/g) and PDCs were dissolved in 25 mM Histidine 10% sucrose pH 7 and administered i.v. at a single dose at day 0. The treatment and observation were conducted up to 7 days and MTD was defined by ≥20% body weight loss. Body weights were measured daily, death and observed clinical signs were recorded.
Doses of 3, 5, and 10 mg/kg were administered. MTD was defined by ≥20% body weight loss and body weight measured daily.

The nature of series [4]: Murine hematotoxicity assay. The format is in vivo, BALB/c mice. As to conditions: 3 mg/kg i.v. QW×4, compared to vehicle or MMAE treatment. The protocol:
Murine hematotoxicity experiments were conducted at Charles River Laboratories and the care and use of animals was conducted in accordance with the regulations of the Association for Assessment and Accreditation of Laboratory Animal Care (AAALAC). Wild type BALB/c, female, 7-8 weeks, weighing approximately 18-22 g were randomized and dosed intravenously with control or test articles at a QW×4 schedule. Dosing volume was adjusted based on body weight and was administered at 10 mL/Kg. PDCs were dissolved in 25 mM Histidine 10% sucrose pH 7 and 3 mg/kg was administered. Free MMAE payload was also tested, and similarly dissolved in 25 mM Histidine 10% sucrose pH 7 and administered to the mice at a dose of […] by i.v. injection at a QW×4 schedule. 3 days following each dose, 150 μL of whole blood was collected via submandibular method and placed in K2 EDTA tubes stored on ice. Blood neutrophil counts were performed on the day of collection by IDEXX labs. Body weights were recorded twice a week until study endpoint.
As outlined in the material and methods of Example 1, wild type BALB/c, female, 7-8 weeks, weighing approximately 18-22 g were randomized and dosed intravenously with control or test articles at a QW×4 schedule. Dosing volume was adjusted based on body weight and was administered at 10 ml/Kg. […] Free MMAE payload was also tested, and similarly dissolved in 25 mM Histidine 10% sucrose pH 7 and administered to the mice at a dose of […] by i.v. injection at a QW×4 schedule. 3 days following each dose, 150 μL of whole blood was collected via submandibular method and placed in K2 EDTA tubes stored on ice. Blood neutrophil counts were performed on the day of collection by IDEXX labs. Body weights were recorded twice a week until study endpoint.

Series [5] has as its system MDA-MB-231 tumor cells. In words: MDA-MB-231 murine xenograft efficacy model. As to conditions: for body weight loss: Example 8, PDC 3 mg/kg, free MMAE 0.6 mg/kg, i.v. QW×4. The format is in vivo, BALB/c Nude mice. The procedure:
Murine xenograft experiments were conducted at WuXi AppTec and/or Charles River Laboratories and the care and use of animals was conducted in accordance with the regulations of the Association for Assessment and Accreditation of Laboratory Animal Care (AAALAC). MDA-MB-231 tumor cells (ATCC, Manassas, VA, cat #HTB-26) were grown and maintained in L15 medium supplemented with 10% heat inactivated fetal bovine serum, 1% Antibiotic-Antimycotic, and L-glutamine (2 mM) at 37° C. in an atmosphere in 5% CO2, 95% air. BALB/c Nude, female, 6-8 weeks, weighing approximately 18-22 g were purchased from Vital River Laboratory Animal Technology Co., LTD. Mice were inoculated subcutaneously at the right flank with MDA-MB-231 tumor cells (e.g., triple negative breast cancer cells) (10×10^6) in 0.2 mL of PBS with Matrigel (1:1) for tumor development. Animals were randomized and treatment was started when the average tumor volume reached approximately 150-200 mm^3 for the efficacy study. Dosing volume was adjusted based on body weight and was administered at 10 ml/Kg. […] Free MMAE payload was also tested, and similarly dissolved in 25 mM Histidine 10% sucrose pH 7 and one or more of the following doses, 0.6, 0.06 mg/kg, were administered to the mice i.v. at a QW×4 schedule. Tumor sizes were measured twice weekly in two dimensions using a caliper, and the volume in mm^3 calculated using the formula: V=0.5 a×b^2, where a and b are the long and short diameters of the tumor, respectively. TGI was calculated for each group using the formula: TGI (%)=[1−(Ti−T0)/(Vi−V0)]×100; where Ti is the average tumor volume of a treatment group on a given day, T0 is the average tumor volume of the treatment group on the first day of treatment, Vi is the average tumor volume of the vehicle control group on the same day with Ti, and V0 is the average tumor volume of the vehicle group on the first day of treatment.

Results on six molecules are retold here after patent US20240285785A1, “TARGETING SORTILIN” (priority 2022, published 2024).

Where a SMILES comes first, the peptide text is derived from it. [ ]: non-standard residue; d: D form. The star is where a group is joined. Dolaproine = CO[C@@H]([C@@H]1CCCN1)[C@@H](C)C(=O)O; Dil = CC[C@H](C)[C@H](NC)[C@@H](CC(=O)O)OC; X1 = C[C@@H](N*)[C@@H](O)c1ccccc1; NMeV = CN[C@H](C(=O)O)C(C)C

With `CC(C)C[C@H](NC(=O)[C@H](CCCNC(=N)N)NC(=O)[C@H](CC(C)C)NC(=O)[C@H](C)NC(=O)[C@H](CC(C)C)NC(=O)[C@H](CCCNC(=N)N)NC(=O)[C@H](CCC(N)=O)NC(=O)[C@H](CC(C)C)NC(=O)[C@H](C)NC(=O)[C@@H]1CCCN1C(=O)[C@H](Cc1c[nH]c2ccccc12)NC(=O)[C@@H]1CCCN1C(=O)[C@H](C)NC(=O)[C@H](CCCNC(=N)N)NC(=O)[C@@H]1CCCN1C(=O)[C@H](CC(=O)O)NC(=O)[C@@H](N)CC(=O)O)C(=O)O` [PRGN_RL], the “poorer affinity than the WT sequence (PRGN_WT)” value in series [1] (binding to SORT1-Ag) was around 7 ×. Moreover, the “solubility (DLS)” value in series [2] is listed as “good solubility”. On to `CC[C@H](C)[C@@H]([C@@H](CC(=O)N1CCC[C@H]1[C@H](OC)[C@@H](C)C(=O)N[C@H](C)[C@@H](O)c1ccccc1)OC)N(C)C(=O)[C@@H](NC(=O)[C@H](C(C)C)N(C)C(=O)OCc1ccc(NC(=O)[C@H](CCCNC(N)=O)NC(=O)[C@@H](NC(=O)CCCC(=O)NCCC(=O)N(C)CC(=O)N(C)CC(=O)N(C)CC(=O)N(C)CC(=O)N[C@@H](CC(=O)O)C(=O)N[C@@H](CC(=O)O)C(=O)N2CCC[C@H]2C(=O)N[C@@H](CCCNC(=N)N)C(=O)N[C@@H](C)C(=O)N2CCC[C@H]2C(=O)N[C@@H](Cc2c[nH]c3ccccc23)C(=O)N2CCC[C@H]2C(=O)N[C@@H](C)C(=O)N[C@@H](CC(C)C)C(=O)N[C@@H](CCC(N)=O)C(=O)N[C@@H](CCCNC(=N)N)C(=O)N[C@@H](CC(C)C)C(=O)N[C@@H](C)C(=O)N[C@@H](CC(C)C)C(=O)N[C@@H](CCCNC(=N)N)C(=O)N[C@@H](CC(C)C)C(=O)O)C(C)C)cc1)C(C)C` [PRGN_RL_PDC], for which, in series [3], the “toxicity” value is given as “mild toxicity”. For `CC(C)C[C@H](NC(=O)[C@H](CC(C)C)NC(=O)[C@H](CCC(N)=O)NC(=O)[C@H](CCCNC(=N)N)NC(=O)[C@H](CC(C)C)NC(=O)[C@H](C)NC(=O)[C@@H]1CCCN1C(=O)[C@H](CC(=O)O)NC(=O)[C@H](CCCNC(=N)N)NC(=O)[C@H](CC(C)C)NC(=O)[C@@H]1CCCN1C(=O)[C@H](C)NC(=O)[C@H](CC(=O)O)NC(=O)[C@H](Cc1c[nH]c2ccccc12)NC(=O)[C@H](CCCNC(=N)N)NC(=O)[C@@H]1CCCN1C(=O)[C@H](C)N)C(=O)O` [PRGN_WT], in series [2], the “solubility (DLS)” value is given as “good solubility”. Take `CCCC[C@@H]1NC(=O)[C@H](CCCNC(=N)N)NC(=O)[C@H](CCCCNC(=O)CN(C)C(=O)CN(C)C(=O)CN(C)C(=O)CN(C)C(=O)CCNC(=O)CCCC(=O)N[C@H](C(=O)N[C@@H](CCCNC(N)=O)C(=O)Nc2ccc(COC(=O)N(C)[C@H](C(=O)N[C@H](C(=O)N(C)[C@@H]([C@@H](C)CC)[C@@H](CC(=O)N3CCC[C@H]3[C@H](OC)[C@@H](C)C(=O)N[C@H](C)[C@@H](O)c3ccccc3)OC)C(C)C)C(C)C)cc2)C(C)C)NC(=O)[C@H](CC(N)=O)NC(=O)[C@H](CCC(=O)O)NC(=O)[C@@H](NC(=O)[C@H](Cc2c[nH]c3ccccc23)NC(=O)[C@H](CCCNC(=N)N)NC(C)=O)CSSC[C@@H](C(=O)N[C@@H](CCCNC(=N)N)C(=O)N[C@@H](CCC(N)=O)C(=O)N[C@H](C(=O)N[C@@H](CC(C)(C)C)C(=O)O)C(C)(C)C)NC(=O)[C@H]([C@@H](C)O)NC(=O)[C@H](Cc2ccccc2)NC1=O` [Arb_cyclic_G23-PDC]: in series [4], the blood neutrophil counts entry is “reduced neutrophil counts”. In addition, the “tumor growth inhibited relative to vehicle” value in series [5] (3 mg/kg i.v. QW×4, day 22 (Example 8)) is 68%. The body weight loss entry in series [5] was “body weight loss tracked each other”. As for `CC[C@H](C)[C@@H]([C@@H](CC(=O)N1CCC[C@H]1[C@H](OC)[C@@H](C)C(=O)N[C@H](C)[C@@H](O)c1ccccc1)OC)N(C)C(=O)[C@@H](NC(=O)[C@@H](NC)C(C)C)C(C)C` [MMAE, Monomethyl auristatin E, reference compound] (H-[NMeV]V[Dil][Dolaproine]-X1), the body weight variation result in series [5] (Example 6, PDC 3, 1, 0.3 mg/kg, free MMAE at equivalency to 3 mg/kg PDC) is “body weight fluctuations corresponding to treatment times”. Besides, in series [5], the body weight loss entry is “body weight fluctuations corresponding to treatment times”. Take `CC(C)C[C@H](NC(=O)[C@H](CC(C)C)NC(=O)[C@H](CC(=O)O)NC(=O)[C@H](CCCNC(=N)N)NC(=O)[C@@H]1CCCN1C(=O)[C@H](CC(C)C)NC(=O)[C@H](CCCNC(=N)N)NC(=O)[C@H](C)NC(=O)[C@H](CC(C)C)NC(=O)[C@H](CCCNC(=N)N)NC(=O)[C@@H](N)CCC(N)=O)C(=O)N[C@@H](C)C(=O)N[C@@H](Cc1c[nH]c2ccccc12)C(=O)N1CCC[C@H]1C(=O)N1CCC[C@H]1C(=O)N[C@@H](C)C(=O)N[C@@H](CC(=O)O)C(=O)O` [PRGN_scr, reference compound]: in series [1] (direct titration, FAM-labeled peptide), the “affinity in FP (direct binding to SORT1-Ag)” value is “no binding”. For the same molecule, the “solubility (DLS)” value in series [2] is “good solubility”.
